Experimental data from patent publication US20230183243A1, “HETEROARYL DERIVATIVES AND PHARMACEUTICAL COMPOSITION COMPRISING SAME AS ACTIVE INGREDIENT” (VORONOI INC., priority 2019, published 2023).
pIC50: −log10 of the molar value.

Tests used:
MDA-MB-231 cells = assay: Inhibition of proliferation of triple-negative breast cancer cells, CellTiter-Glo; type: cell-based; conditions: Homo sapiens, 120 h; MDA-MB-231, cultured for 5 days
Protocol: Specifically, the following test was performed in order to evaluate the inhibitory activity of the compound according to the present invention against the cell proliferation in triple-negative breast cancer cells (TNBCs).
Cells were seeded in 180 μL of a culture broth at a density of 2,000 to 3,000 cells/well in a white clear bottom 96-well plate (Corning) according to the growth ability of each cell, and then cultured for 24 hours under conditions of 5% CO2 and 37° C. Thereafter, the compound was prepared by diluting a 10 mM stock solution three-fold with 100% DMSO at a total of 12 concentrations so that a peak concentration of the compound was in a range of 10 mM to 0.05 μM, and the diluted compound was then diluted in each cell culture medium so that a final concentration of the compound was in a range of 100 μM to 0.5 nM. 20 μL of a diluted solution diluted with a medium was added to the cell solution in which cells were seeded in the 96-well plate on the previous day so that a final concentration of the diluted solution was in a range of 10 μM to 0.05 nM. Each of the cells was cultured for 5 days. To check cell viability, a mixture provided in a CellTiter-Glo® Luminescent Cell Viability Assay Kit (Promega) was added to each of the cultured cell media, and cultured for another 10 minutes under a condition of 37° C. Then, a degree of luminescence (fluorescence) was measured. A degree of inhibition of the cell growth according to the treatment concentration of each of the compounds was calculated based on the fluorescence of the solvent control cells which were not treated with the compound.

TTK = biological target: T1, TTK (Homo sapiens, UniProt P33981); assay: TTK enzyme activity, ADP-Glo kinase assay; type: biochemical; parameters: purchased SignalChem T20-10G; conditions: purified human TTK, ATP 10 μM, 25° C., 2 hours
T1 sequence (P33981 1-857): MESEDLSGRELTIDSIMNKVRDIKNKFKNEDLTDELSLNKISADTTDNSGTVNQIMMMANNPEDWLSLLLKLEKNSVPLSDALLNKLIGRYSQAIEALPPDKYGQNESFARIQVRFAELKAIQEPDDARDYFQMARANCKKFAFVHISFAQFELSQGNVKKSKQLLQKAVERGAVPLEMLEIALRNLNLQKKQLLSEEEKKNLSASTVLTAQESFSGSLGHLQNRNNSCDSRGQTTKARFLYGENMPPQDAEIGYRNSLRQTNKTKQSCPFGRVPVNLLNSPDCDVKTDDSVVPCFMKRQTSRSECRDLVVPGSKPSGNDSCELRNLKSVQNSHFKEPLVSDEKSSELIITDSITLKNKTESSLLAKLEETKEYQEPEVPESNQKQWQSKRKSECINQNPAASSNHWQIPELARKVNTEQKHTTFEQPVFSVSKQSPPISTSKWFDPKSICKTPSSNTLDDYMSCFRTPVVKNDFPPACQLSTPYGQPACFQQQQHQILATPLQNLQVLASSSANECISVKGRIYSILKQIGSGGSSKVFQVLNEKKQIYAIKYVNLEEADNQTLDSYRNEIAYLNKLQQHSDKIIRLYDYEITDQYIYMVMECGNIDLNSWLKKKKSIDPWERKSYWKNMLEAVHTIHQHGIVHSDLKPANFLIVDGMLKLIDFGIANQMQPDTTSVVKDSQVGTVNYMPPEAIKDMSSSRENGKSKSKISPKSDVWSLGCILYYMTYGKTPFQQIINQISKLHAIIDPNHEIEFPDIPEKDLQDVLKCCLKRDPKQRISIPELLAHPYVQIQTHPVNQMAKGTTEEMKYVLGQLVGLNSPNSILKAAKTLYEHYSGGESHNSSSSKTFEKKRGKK
Protocol: To evaluate an inhibitory activity of the compound according to the present invention against TTK (MPS1), an experiment was performed as follows.
Each of the Example compounds was reacted with a purified human TTK (SignalChem #T20-10G) enzyme to evaluate an ability to inhibit an enzyme using a method as described below. A composition of 40 mM Tris-HCl (pH 7.4), 20 mM MgCl2, 0.5 mg/mL BSA, and 50 μM DTT was used as a reaction buffer, and all reactions of test substances were performed in the reaction buffer. […] In the test, purified ATP (10 μM) and an enzyme substrate (0.2 μg) were reacted with a human TTK (25 ng) enzyme at 25° C. for 2 hours, and the enzyme activity was determined using an in vitro ADP-Glo™ kinase assay (Promega). […] The degree of inhibition of the enzyme activity according to the treatment concentration of each of the compounds was calculated based on the fluorescence of the enzyme activity of the solvent control which was not treated with the compound.

| Compound | GI50 (MDA-MB-231 cells) [nM] | pIC50 (TTK) |
| --- | --- | --- |
| COc1cc(N2CCCC2=O)ccc1Nc1nc(NC2CCOCC2)c2c(C#N)c[nH]c2n1 [Example 74, 2-((2-methoxy-4-(2-oxopyrrolidin-1-yl)phenyl)amino)-4-((tetrahydro-2H-pyran-4-yl)amino)-7H-pyrrolo[2,3-d] pyrimidine-5-carbonitrile] | > 1000 |  |
| COc1cc(-c2ncn(C)n2)ccc1Nc1nc(NC2CCCCC2)c2c(C#N)c[nH]c2n1 [Example 27, 4-(cyclohexylamino)-2-((2-methoxy-4-(1-methyl-1H-1,2,4-triazol-3-yl)phenyl)amino)-7H-pyrrolo[2,3-d] pyrimidine-5-carbonitrile] | < 100 | > 7.30 |
| Cn1nccc1-c1ccc(Nc2nc(NC3CCCCC3)c3c(C#N)c[nH]c3n2)cc1 [Example 37, 4-(cyclohexylamino)-2-((4-(1-methyl-1H-pyrazol-5-yl)phenyl)amino)-7H-pyrrolo[2,3-d] pyrimidine-5-carbonitrile] | < 100 |  |
| COc1cc(-c2ccnn2C)ccc1Nc1nc(NC2CCCCC2)c2c(C(F)(F)F)c[nH]c2n1 [Example 6, N^4-cyclohexyl-N^2-(2-methoxy-4-(1-methyl-1H-pyrazol-5-yl)phenyl)-5-(trifluoromethy1)-7H-pyrrolo[2,3-d] pyrimidine-2,4-diamine] | > 1000 |  |
| C[C@@H](Oc1cc(C(=O)N(C)C)ccc1Nc1nc(O[C@H]2CC[C@@](C)(O)CC2)c2c(Cl)c[nH]c2n1)C(F)(F)F [Example 86, 4-((5-chloro-4-(((1s,4S)-4-hydroxy-4-methylcyclohexyl)oxy)-7H-pyrrolo[2,3-d]pyrimidin-2-yl)amino)-N,N-dimethyl-3-(((R)-1,1,1-trifluoropropan-2-yl)oxy)benzamide] | < 100 | > 7.30 |
| COc1cc(-c2ccc(CN3CCN(C(C)=O)CC3)cc2)ccc1Nc1nc(NC2CCCC2)c2c(C#N)c[nH]c2n1 [Example 41, 2-((4′-((4-acetylpiperazin-1-yl)methyl)-3-methoxy-[1,1′-biphenyl]-4-yl)amino)-4-(cyclopentylamino)-7H-pyrrolo[2,3-d] pyrimidine-5-carbonitrile] | 100 to 1000 | 6.70 to 7.30 |
| COc1cc(-c2ccnn2C)ccc1Nc1nc(OC2CCCCC2)c2c(C#N)c[nH]c2n1 [Example 45, 4-(cyclohexyloxy)-2-((2-methoxy-4-(1-methyl-1H-pyrazol-5-yl)phenyl)amino)-7H-pyrrolo[2,3-d] pyrimidine-5-carbonitrile] | < 100 |  |
| Cn1nccc1-c1ccc(Nc2nc(NC3CCC3)c3c(C#N)c[nH]c3n2)c2c1OCCO2 [Example 82, 4-(cyclobutylamino)-2-((8-(1-methyl-1H-pyrazol-5-yl)-2,3-dihydrobenzo[b][1,4]dioxin-5-yl)amino)-7H-pyrrolo[2,3-d] pyrimidine-5-carbonitrile] | < 100 | > 7.30 |
| CNc1nc(Nc2ccc(N3CCCC3=O)cc2OC)nc2[nH]cc(C(F)(F)F)c12 [Example 51, l-(3-methoxy-4-((4-(methylamino)-5-(trifluoromethyl)-7H-pyrrolo[2,3-d]pyrimidin-2-yl)amino)phenyl) pyrrolidin-2-one] | > 1000 | 6.70 to 7.30 |
| CCCCNc1nc(Nc2ccc(-c3nncn3C)cc2OCC)nc2[nH]cc(C#N)c12 [Example 11, 4-(butylamino)-2-((2-ethoxy-4-(4-methyl-4H-1,2,4-triazol-3-yl)phenyl)amino)-7H-pyrrolo[2,3-d] pyrimidine-5-carbonitrile] | < 100 | > 7.30 |
| COc1cc(-c2ccc(CN3CCN(C(C)=O)CC3)cc2)ccc1Nc1nc(NC2CCCCC2)c2c(C#N)c[nH]c2n1 [Example 23, 2-((4′-((4-acetylpiperazin-1-yl)methyl)-3-methoxy-[1,1′-biphenyl]-4-yl)amino)-4-(cyclohexylamino)-7H-pyrrolo[2,3-d] pyrimidine-5-carbonitrile] | < 100 | 6.70 to 7.30 |
| CCOc1cc(-c2ccnn2C)ccc1Nc1nc(NC2CCCCC2)c2c(C#N)c[nH]c2n1 [Example 36, 4-(cyclohexylamino)-2-((2-ethoxy-4-(1-methyl-1H-pyrazol-5-yl)phenyl)amino)-7H-pyrrolo[2,3-d] pyrimidine-5-carbonitrile] | < 100 |  |
| COCCNc1nc(Nc2ccc(-c3ccnn3C)cc2OC)nc2[nH]cc(C#N)c12 [Example 13] |  | > 7.30 |
| COc1cc(-n2cc(C)nc2C)ccc1Nc1nc(NC2CCCCC2)c2c(C#N)c[nH]c2n1 [Example 34, 4-(cyclohexylamino)-2-((4-(2,4-dimethyl-1H-imidazol-1-yl)-2-methoxyphenyl)amino)-7H-pyrrolo[2,3-d] pyrimidine-5-carbonitrile] | < 100 |  |
| COc1cc(N2CCOCC2=O)ccc1Nc1nc(NC2CCCCC2)c2c(C#N)c[nH]c2n1 [Example 81, 4-(cyclohexylamino)-2-((2-methoxy-4-(3-oxomorpholino)phenyl)amino)-7H-pyrrolo[2,3-d] pyrimidine-5-carbonitrile] | < 100 |  |
| COc1cc(-c2ccnn2C)ccc1Nc1nc(NC2CCCCC2)c2c(Cl)c[nH]c2n1 [Example 5, 5-chloro-N^4-cyclohexyl-N^2-(2-methoxy-4-(1-methyl-1H-pyrazol-5-yl)phenyl)-7H-pyrrolo[2,3-d] pyrimidine-2,4-diamine] | > 1000 |  |
| CCOc1cc(N2CCCC2=O)ccc1Nc1nc(NC2CCCCC2)c2c(C#N)c[nH]c2n1 [Example 78, 4-(cyclohexylamino)-2-((2-ethoxy-4-(2-oxopyrrolidin-1-yl)phenyl)amino)-7H-pyrrolo[2,3-d] pyrimidine-5-carbonitrile] | 100 to 1000 |  |
| COc1cc(N2CCCC2=O)ccc1Nc1nc(NCC(C)(C)C)c2c(C#N)c[nH]c2n1 [Example 77, 2-((2-methoxy-4-(2-oxopyrrolidin-1-yl)phenyl)amino)-4-(neopentylamino)-7H-pyrrolo[2,3-d] pyrimidine-5-carbonitrile] | 100 to 1000 |  |
| COc1cc(-c2ccnn2C)ccc1Nc1nc(NC2CCCCC2)c2cc[nH]c2n1 [Example 4, N^4-cyclohexyl-N^2-(2-methoxy-4-(1-methyl-1H-pyrazol-5-yl)phenyl)-7H-pyrrolo[2,3-d] pyrimidine-2,4-diamine] | 100 to 1000 |  |
| N#Cc1c[nH]c2nc(Nc3ccc(N4CCCC4=O)cc3)nc(NC3CCCCC3)c12 [Example 80, 4-(cyclohexylamino)-2-((4-(2-oxopyrrolidin-1-yl)phenyl)amino)-7H-pyrrolo[2,3-d] pyrimidine-5-carbonitrile] | < 100 |  |
| COc1cc(-c2ccnn2C)ccc1Nc1nc(NC2CCOCC2)c2c(C#N)c[nH]c2n1 [Example 15, 2-((2-methoxy-4-(1-methyl-1H-pyrazol-5-yl)phenyl)amino)-4-((tetrahydro-2H-pyran-4-yl)amino)-7H-pyrrolo[2,3-d] pyrimidine-5-carbonitrile] |  | > 7.30 |
| COc1cc(-c2ccnn2C)ccc1Nc1nc(NCC2CCCC2)c2c(C#N)c[nH]c2n1 [Example 8, 4-((cyclopentylmethyl)amino)-2-((2-methoxy-4-(1-methyl-1H-pyrazol-5-yl)phenyl)amino)-7H-pyrrolo[2,3-d] pyrimidine-5-carbonitrile] |  | 6.70 to 7.30 |
